According to paper PMC4915154, “Development of background-free tame fluorescent probes for intracellular live cell imaging” (Nature Communications, 2016):

How the values were obtained:
[1] = system: human histone H2B (H2B-mKate2 fusion with Azi at site 16) in U-2 OS cells; assay: Histone H2B imaging in live cells (Azi incorporated in H2B-mKate2); type: cell-based; conditions: live U-2 OS cells, 10 μM, 37 °C
From the text: The red fluorescent protein mKate2 was fused to the C terminus of human histone H2B as a red fluorescent marker. Using the in vivo unnatural amino acid (UAA) technology,[27][28] an azide-bearing UAA, p-azido-L-phenylalanine (Azi), was site-specifically incorporated at site 16 of mKate2 of the fusion protein H2B-mKate2, which was expressed in live U-2 OS cells. The cells were labelled with CO-1, washed to remove unreacted CO-1, and then imaged with laser scanning confocal microscopy.
U-2 OS cells were transfected with 1 μg DNA of each plasmid using Lipofectamine2000 in 35 mm glass bottom dishes according to the manufacturer protocol. Azi (purchased from Bachem) was added 1 h before transfection at a final concentration of 0.5 mM. Plasmid pIre-Azi3 (expressing the orthogonal amber suppressor transfer RNA (tRNA) and the E2AziRS specific for Azi) was co-transfected with plasmid pmH2B-6-mKate2-16tag in a 1:1 molar ratio. After 24 h, cells were washed three times with culture medium (DMEM with 10% FBS) (15 min each time). Growth media containing 10 μM CO-1 was then added to the dishes, and cells were incubated at 37 °C for 90 min followed by 4 times washing with growth media (30 min each time). Laser scanning confocal microscopy (Zeiss LSM 700) was used for imaging. The same conditions and settings were used for imaging control and experimental cells.
U-2 OS cells were transfected with plasmid pmH2B-6-mKate2. After 24 hours, cells were
labeled with 10 μM CO-1 for 90 minutes at 37 °C. Cells were washed to remove the unreacted
CO-1 and then imaged for mKate2 (red) and CO-1 (green) signals. Scale bar, 5 μm.
(§1) (1 picture or pasted object on this page, not shown here)

[2] = system: U-2 OS and CHO cell lines; assay: Cellular retention and efflux characteristics test (before/after washing imaging, retaining ratio RR); type: cell-based, human (U-2 OS), Chinese hamster (CHO); conditions: 30 min
From the text: To expedite an efficient strategy for ‘tame' probe development, we set up a system to predict cellular properties of fluorescent probes via phenotypic high-throughput screening (HTS), cheminformatics and statistical analysis (Fig. 1a). As the first step, we conducted phenotypic HTS to investigate cell permeability and nonspecific binding properties of the probes in a training set. We tested about 2,085 probes consisted of a wide range photophysical properties from numerous fluorophore cores such as BODIPY[12][13][14][15], xanthone, rosamine, cyanine[19][20] and ACEMAN[21]. Their cellular influx and efflux profiles were examined in two types of mammalian cells, U-2 OS and CHO. These cell lines were chosen due to their flexibility in genetic manipulation, adaptability to various culture conditions and versatility in wide biomedical research such as gene expression, toxicity screening, recombinant protein and live cell imaging. Each of the probes was added into live cells and cell image was taken after 30 min by ImageXpress Micro cellular imaging system (Molecular Device). The cells were then washed with fresh growth media, and after another 10 min, a second image was taken to check the completeness of probe washing out of the cell. The first and second imaging facilitated influx (before washing, BW) and efflux (after washing, AW) measurements, respectively (Supplementary Fig. 1).
To measure the influx and efflux of the probes, an automated quantitative intensity-based image analysis was then performed by Multi-Wavelength Cell Scoring analysis using MetaXpress High Content Image software. Retaining ratio (RR, per cent ratio of the average intensity of AW image over BW image) was computed to classify probes into the three phenotypic groups. For each cell in the image, the nuclei and cell region were segmented to provide approximate cellular boundaries. Fluorescence intensity was then quantified on a cell-by-cell basis by the following steps: (i) selecting the image of interest, (2) specifying the width of the stained cell area, (3) adjusting the intensity above local background for detection specificity, and (4) calculating fluorescence intensity with specified reporting parameters. Average fluorescence intensity for each BW and AW images was calculated for each probes and cell lines, and was then used as input in RR calculation (Supplementary Figs 2 and 3).
U-2 OS, a human osteosarcoma cell line, and CHO, a Chinese hamster ovary cell line, (from ATCC) were cultured in Dulbecco's modified eagle's medium (DMEM) (Invitrogen, CA, USA) supplemented with fetal bovine serum (FBS) (10%) and penicillin–streptomycin (1%). Materials used in the cell culture were purchased from Invitrogen. U-2 OS and CHO cells were seeded onto 96-well plate in growth media at 37 °C in the presence of 5% CO2 and were then allowed to attach and grow to 70–80% confluence. Library probes were dissolved in dimethylsulfoxide (DMSO) to make the 1 mM solution, and stored in −20 °C. Before HTS experiment, the growth media was aspirated and replaced by 200 μl fresh growth media containing probes in final concentration of 1 μM and nuclei dye Hoechst 33342. Plates were incubated for 30 min at 37 °C then were imaged using ImageXpress Micro cellular imaging system (Molecular Device) with × 10 objective lens. Immediately after image acquisition, the cells were washed with fresh growth media, and transferred back to a 37 °C cell incubator for further incubation. After 10 min, cells were again imaged (AW image). The first imaging step allowed influx measurement of BW image , while the second imaging step allowed out-flux measurement of AW image. Images of two regions per well were acquired with DAPI, FITC, TRITC or Texas Red filter sets according to probes' excitation and emission wavelength. Experiment was performed in duplicate. Cellular retention and efflux characteristics test for other synthesized probes were also done by using the same protocol. […]

[3] = system: U-2 OS cells; assay: Cell viability assay (MTS); type: cell-based, human; conditions: 0-10 μM, 1-16 h
Experimental: Cell viability was assessed using MTS assay kit (Promega). 1 × 10^5 U-2 OS cells were seeded on 10 mm culture dishes; cells were stained with or without CO-1 ([…]) for 1–16 h. After incubation, the MTS reagent was added and incubated for 4 h at 37 °C. Absorbance was determined at 490 nm using SpectraMax M2 plate reader.
Supplementary Figure 18 Cell viability test for CO-1.
Cell viability was measured by MTS assay for concentration of probe at 0 μM, 0.3 μM, 1 μM, 3 μM and 10 μM in 1 hour, 4 hours and 16 hours incubation in U-2 OS cells. Absorbance was determined at 490 nm. Each absorbance value was subtracted with blank sample (blank sample = cells containing compound at respective concentration without MTS reagent). Cell viability was calculated by: (viable cells)% = (OD of treated sample/OD of untreated sample)×100. Data are presented as the means + SD obtained from triplicate experiments.
(also on this page, place not known: 25 50 75 100 hour (%) Incubation time CO-1 0 μM μM μM 0 0.3 1 3 μM 10 μM 1 4 hours 16 hours U -2 ( blank reagent) . Cell viability)
as §1

## Cc1cc(C)n2c1C(CCNC(=O)CCC(=O)OCC1C3CCC#CCCC31)=C1C=CC=[N+]1[B-]2(F)F (stereo not drawn) [CO-1]
[1]; 90 min
  Labelling of Azi-bearing histone H2B-mKate2: specific labelling of histone H2B
  Nuclear membrane permeability: pass through nuclear membrane
[1]; 90 minutes
  Labelling of wild type H2B-mKate2 (control without Azi): did not label wild type H2B-mKate2
[2]; CHO and U-2 OS cells, 1 uM probe
  Cellular retention after washing (probe signal): leave the cells after washing
[2]; U-2 OS and CHO cell lines, probe 1 μM, imaged before and 10 min after washing
  Experimentally observed group: L-group (Probes (FI(BW) >200) with rapid efflux were observed to have a RR of <5%, and thus were classified into L-group)
[3]
  Cell viability / toxicity: nontoxic and did not interfere with cell proliferation
